# Results taken from ChEMBL document CHEMBL5252632, “Small molecule-based fluorescent probes for the detection of α-Synuclein aggregation states” (Bioorg Med Chem Lett, 2023).
# Tests used:
# Alpha-synuclein [1] = target: T1, Alpha-synuclein (Homo sapiens, UniProt P37840); assay: Binding affinity to Alpha-synuclein (unknown origin) assessed as dissociation constant
# Alpha-synuclein [2] = target: T1, Alpha-synuclein; assay: Binding affinity to C-terminal His6-tagged human Alpha-synuclein fibrils (1 to 97 residues) expressed in Escherichia coli assessed as association constant by chromatography method
# [3] = target: Amyloid-beta precursor protein (Homo sapiens, UniProt P05067); assay: Binding affinity to amyloid beta (1 to 40) (unknown origin) aggregates assessed as dissociation constant
# Chain of Amyloid-beta precursor protein (P05067 whole entry): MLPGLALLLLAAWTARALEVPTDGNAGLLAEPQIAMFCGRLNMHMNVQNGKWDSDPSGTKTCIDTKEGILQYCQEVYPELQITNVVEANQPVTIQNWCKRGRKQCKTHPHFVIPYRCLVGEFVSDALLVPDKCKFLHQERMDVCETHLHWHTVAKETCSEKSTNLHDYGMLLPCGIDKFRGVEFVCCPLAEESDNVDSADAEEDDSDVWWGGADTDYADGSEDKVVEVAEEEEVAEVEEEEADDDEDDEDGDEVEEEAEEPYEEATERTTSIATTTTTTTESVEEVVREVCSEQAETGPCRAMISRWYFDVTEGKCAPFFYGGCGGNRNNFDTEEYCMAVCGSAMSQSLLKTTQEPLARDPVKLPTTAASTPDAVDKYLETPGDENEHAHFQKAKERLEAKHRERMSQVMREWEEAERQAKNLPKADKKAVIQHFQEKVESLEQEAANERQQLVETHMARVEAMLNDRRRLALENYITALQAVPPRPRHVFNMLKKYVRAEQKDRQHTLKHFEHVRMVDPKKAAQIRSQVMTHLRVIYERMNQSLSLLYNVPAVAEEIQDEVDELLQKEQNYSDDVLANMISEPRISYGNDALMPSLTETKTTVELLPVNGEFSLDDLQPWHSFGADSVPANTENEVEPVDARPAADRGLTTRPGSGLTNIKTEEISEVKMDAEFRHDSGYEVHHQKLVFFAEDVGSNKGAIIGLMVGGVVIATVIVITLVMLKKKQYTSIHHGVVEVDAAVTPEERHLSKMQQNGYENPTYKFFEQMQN
# Alpha-synuclein [4] = target: T1, Alpha-synuclein; assay: Binding affinity to human recombinant Alpha-synuclein assessed as dissociation constant by fluorometric method
SMILES,Kd (Alpha-synuclein [1]) [µM],Kd [3] [µM],also measured
COc1ccc2c(c1)sc(-c1ccc(N3CCCCCC3)cc1)[n+]2C,118,–,–
OCCOC(=C\C=C1N(c2ccccc2)c2cc3ccccc3cc2N1c1ccccc1)/C=C/c1n(-c2ccccc2)c2cc3ccccc3cc2[n+]1-c1ccccc1,–,–,Ka (Alpha-synuclein [2]): 380000 M⁻¹
COc1ccc2nc(-c3ccc(N4CCCCCCC4)cc3)sc2c1,–,0.22,–
COc1ccc2nc(-c3ccc(N4CCOCC4)cc3)sc2c1,–,0.22,–
O=S(=O)(O)c1cccc2c(-c3ccc(Nc4ccccc4)c4c(S(=O)(=O)O)cccc34)ccc(Nc3ccccc3)c12,–,–,Kd (Alpha-synuclein [4]): 8.6 µM
COc1ccc2c(c1)sc(-c1ccc(N3CCOCC3)cc1)[n+]2C,118,–,–
COc1ccc2nc(-c3ccc(N4CCCCC4)cc3)sc2c1,–,0.22,–
O=S(=O)(O)c1ccc2cc(Nc3ccccc3)ccc2c1,–,–,Kd (Alpha-synuclein [4]): 8.8 µM

# More lines, main results first:
Kd (Alpha-synuclein [1]) [µM],Kd [3] [µM],SMILES,also measured
–,0.22,COc1ccc2nc(-c3ccc(N4CCCC4)cc3)sc2c1,–
118,–,COc1ccc2c(c1)sc(-c1ccc(N3CCCCC3)cc1)[n+]2C,–
–,0.048,CN(C)c1ccc2nc(/C=C/C=C/C=C(C#N)C#N)sc2c1,–
118,–,COc1ccc2c(c1)sc(-c1ccc(N3CCCCCCC3)cc1)[n+]2C,–
–,0.22,COc1ccc2nc(-c3ccc(N4CCCCCC4)cc3)sc2c1,–
–,0.22,COc1ccc2nc(-c3ccc(N(C)C)cc3)sc2c1,–
118,–,COc1ccc2c(c1)sc(-c1ccc(N(C)C)cc1)[n+]2C,–
